Measurements published in patent publication US6376175B1, “Methods of discovering chemicals capable of functioning as gene expression modulators” (OSI Pharmaceuticals, Inc., priority 1989, dated 2002).

How the values were obtained:
Assay type in all cases: cell-based
[1] = test system: human G-CSF promoter; conditions: for GCSF fold induction relative to solvent control: Table 2 A) transcriptional activators; for GCSF fold induction relative to solvent control / GCSF fold inhibition relative to solvent control: G21 cells, 6 hours, high-throughput screen; for GCSF fold inhibition relative to solvent control: Table 2 B) transcriptional inhibitors
Description: A human bladder carcinoma cell line (U5637, ATCC number HTB 9) was used for transfection of plasmids containing the human Granulocyte-Colony Stimulating Factor (G-CSF) promoter (see below) and was maintained in RPMI medium supplemented with 10% FCS. For HTP screening, transfected 5637 clones were transferred to a serum free defined medium identical to that used for the NIH/3T3 clones.
The sequences of OL-1, OL-2 and OL-5 recognize the G-CSF promoter region, OL-4 recognizes the first intron/exon junction and OL-3 recognizes sequences within the second exon (32). One of the clones isolated from the leukocyte library using these oligonucleotide probes contains a 3.5 kb SalI-BamHI fragment of G-CSF genomic sequence consisting of 3.3 kb of promoter sequence and two hundred base pairs of the coding region. This fragment was inserted into the vector pGEM-7-Zf (Promega, Madison, Wis.) which had previously been digested with SalI/BamHI, resulting in the vector pJM710 (FIG. 7). pJM710 was then digested with PstI, and the resulting 1.6 kb fragment containing G-CSF upstream sequences and the first 15 bases of the G-CSF leader sequence was inserted into the PstI site of pGEM5-Luci (FIG. 8) to generate pG-Lucl (FIG. 9). This construct was then used for transfection of 5637 human bladder carcinoma cells as described below in section E3. pGEM5-Luci (FIG. 8) had previously been constructed by inserting the […]/SalI fragment from pSVLuci (FIG. 2) containing the luciferase coding sequence and the SV40 late polyadenylation signal into pGEM 5-Zf (Promega, Madison Wis.) digested with XhoI/SalI.
pG-LUC1 (FIG. 9) and pRSVNeo were co-transfected into 5637 human bladder carcinoma cells as described above. Selection of G418 resistant clones was as described above except for using a concentration of 0.1 mg/ml G418. Analysis of cell clones was performed as above except that a known inducer of G-CSF expression (1-5 µg/ml lipopolysaccharide (LPS), E. coli serotype 055:b5, Difco, Detroit, Mich. or Sigma, St. Louis, Mo.) was used in place of dexamethasone.
(§1) Cell plating: Dynatech Microlite 96 well plates were custom pretreated for cell attachment by Dynatech Laboratories, Inc. (Chantilly, Va.). Alternatively, the 96 well plates were treated with 50 µl per well of human fibronectin (hFN, 15 µg/ml in PBS, Collaborative Research, Bedford, Mass.) overnight at 37 C. hFN-treated plates were washed with PBS using an Ultrawash 2 Microplate Washer (Dynatech Labs), to remove excess hFN prior to cell plating. M10, 532, and G21 cells maintained in their respective serum media (with 0.2 mg/ml G418) were washed with PBS, harvested by trypsinization, and counted using a hemocytometer and the Trypan Blue exclusion method according to protocols provided by Sigma, St. Louis, Mo. Chemical Company. Cells were then diluted into serum free defined media (with 0.2 mg/ml G418), and 0.2 ml of cell suspension per well was plated onto Dynatech treated plates (532 and G21) or hFN-treated plates (M10) using a Cetus Pro/Pette (Cetus, Emeryville Calif.). Plates were incubated overnight at 37 C in a humidified 5% CO2 atmosphere.
(§2) Addition of Chemicals to Cells: Chemicals from the Oncogene Science file were dissolved in DMSO at concentrations of 3-30 mg/ml. A liquid handling laboratory work station (RSP 5052, Tecan U.S. Chapel Hill, N.C.) was used to dilute the chemicals (three dilutions; 5 fold, 110 fold, and 726 fold). 10 11 of each dilution were added to each of quadruplicate samples of cells contained in the wells of 96-well Dyantech Microlite Plates. […]

[2] = test system: human growth hormone promoter; conditions: for hGH fold induction relative to solvent control: Table 2 A) transcriptional activators; for hGH fold induction relative to solvent control / hGH fold inhibition relative to solvent control: 532 cells, 6 hours, high-throughput screen; for hGH fold inhibition relative to solvent control: Table 2 B) transcriptional inhibitors
Description: A rat pituitary cell line, designated GC, (4, 25) was used for transfection of plasmids containing the human growth hormone promoter (see below) and was maintained in DMEM and Ham's F12 medium (1:1), supplemented with 12.5% FCS. For HTP screening, transfected GC clones were transferred to serum free defined medium consisting of DMEM and Ham's F12 medium (1:1) supplemented with growth factors, hormones and nutrients as described previously (17, 5).
The SalI-XhoI fragment of pSVLuci (FIG. 2) containing the luciferase coding sequences and the SV40 late polyadenylation site was inserted into pUC 8 (Biorad, Richmond, Calif.), which has been linearized by a SmaI/HinCII digestion and ligated to XhoI linkers (New England Biolabs, Beverly, Mass.). The new plasmid thus generated (pUXLuci; FIG. 4) was linearized by XhoI digestion followed by incubation with the Klenow fragment of E. coli DNA polymerase and the four deoxyribonucleotides to fill in the single-stranded ends of the vector. This linear (5.1 KB) form of pUXLuci was then ligated to the filled-in 550 bP HindIII-XbaI fragment of the plasmid phGH:CAT (FIG. 5) (25). Human growth hormone promoter sequences located on the HindIII-XbaI fragment were thus fused to the luciferase coding sequences located on pUXLuci generating the plasmid phGH-Luci (FIG. 6), which was used in transfections of GC cells as described below (Section E2).
phGH-LUCI (FIG. 6) and pRSVNeo, an antibiotic resistance plasmid (14), were co-transfected into GC rat pituitary cells as described above. Selection of G418-resistant cell clones was described above except for using a concentration of 0.2 mg/ml G418. Analysis of the cell clones was performed as above, except that known inducers of hGH expression (10-100 nM rat growth hormone releasing factor (rGRF, Bachem, Torrance, Calif.) and 10 μm forskolin (Sigma, St. Louis, Mo.) were used in place of dexamethasone. One clone, 532, was selected for further use in the high throughput screen.
as §1
Addition of Chemicals to Cells: Chemicals from the Oncogene Science file were dissolved in DMSO at concentrations of 3-30 mg/ml. A liquid handling laboratory work station (RSP 5052, Tecan U.S. Chapel Hill, N.C.) was used to dilute the chemicals (three dilutions; 5 fold, 110 fold, and 726 fold). 10 11 of each dilution were added to each of quadruplicate samples of cells contained in the wells of 96-well Dyantech Microlite Plates. Cell plates were then shaken on a microplate shaker (Dyantech, medium setting, 30 sec.) and incubated for 6 hours at 37 C, 5% CO2.
Bioluminescence Assay: After incubation with OSI-file chemicals, cell plates were washed 3 times with PBS using an Ultrawash 2 Microplate Washer (Dyantech Labs) and 75 µl of Lysis Buffer 2 were added to each well (Lysis Buffer 2 is the same as Lysis buffer 1 exept that the ATP and DTT concentrations were changed to 2.67 mM and 133 mM, respectively). […]

[3] = test system: mouse mammary tumor virus (MMTV) promoter; conditions: for MMTV fold induction relative to solvent control: Table 2 A) transcriptional activators; for MMTV fold induction relative to solvent control / MMTV fold inhibition relative to solvent control: M10 cells, 6 hours, high-throughput screen; for MMTV fold inhibition relative to solvent control: Table 2 B) transcriptional inhibitors; for effect of steroids on luciferase expression in the MMTV reporter cell line M10: FIG. 43
Description: NIH/3T3 fibroblast cells (ATCC number CRL 1658) were used for transfection of plasmids containing the mouse mammary tumor virus (MMTV) promoter linked to firefly luciferase coding sequences (see below). Cells were propagated in Dulbecco's modified Eagle's medium (DMEM) obtained from Gibco, Grand Island, N.Y. and supplemented with 10% FCS. For high-throughput (HTP) screening, transfected NIH/3T3 clones were transferred to serum free defined medium consisting of Iscove's modified Eagle's medium (IMEM) and Ham's F12 medium (1:1) supplemented with growth factors, hormones and nutrients as described previously (43).
The firefly luciferase gene was removed from the plant expression plasmid pDO432 (33) (FIG. 1) as a 1.9 kb BamHI fragment and cloned into the BamHI site of pSVL (Pharmacia, Piscataway, N.J.), a mammalian expression vector containing the SV40 promoter. The resulting plasmid (pSVLuci; FIG. 2) was digested with XhoI and SalI to produce a 2.4 kb fragment containing the luciferase coding sequences and the SV40 late polyadenylation site. This fragment was inserted into the XhoI site of pMSG (Pharmacia, Piscataway, N.J.), a eukaryotic expression vector containing the MMTV promoter. The resulting MMTV promoter-luciferase fusion plasmid (pMLuci; FIG. 3) was used to transfect NIH/3T3 cells as described below (section E1). Similar constructs can be made using luciferase vectors from Clontech (Palo Alto, Calif.).
pMluci (FIG. 3) and pSV2Neo, an antibiotic resistance plasmid (34), were co-transfected into NIH/3T3 mouse fibroblast cells using the calcium phosphate precipitation method (15) with a commercially available kit (Pharmacia, Piscataway N.J.). Two days later, cells were transferred to media containing 0.4 mg/ml G418 and were grown for an additional 10-14 days. G418-resistant clones were isolated by standard methods. Once sufficient cell numbers were obtained, clones were analyzed based on several criteria: constitutive luciferase production, induction of luciferase expression by dexamethasone (1 μm, Sigma, St. Louis, Mo.), satisfactory attachment to microtiter plates used in the high-throughput screen (see Section G) and acceptable standard deviation in multiple luciferase expression assays (see below for assay protocol). This analysis was carried out using the luciferase assay conditions described in sections F and G. Of the clones which satisfied the above criteria for the high throuphput screen, one clone, M10, was selected for use.
as §1, §2

Molecule | GCSF fold induction relative to solvent control [1] [fold] | hGH fold induction relative to solvent control [2] [fold] | MMTV fold induction relative to solvent control [3] [fold] | further results
Nc1ccc2nc3ccc(N)cc3[s+]c2c1 [Chemical 836] | 3.20 | 0.23 | 0.58 | 
CC(=O)[O-].Nc1ccc2nc3c(cc(N)c4ccccc43)[o+]c2c1 [Chemical 1776] | 3.50 | 0.15 | 1.36 | 
CC12CCC(CC1=O)C2(C)C (stereo not shown) [Chemical 1720] |  |  |  | GCSF fold inhibition relative to solvent control [1]: 0.65 fold; hGH fold inhibition relative to solvent control [2]: 4.76 fold; MMTV fold inhibition relative to solvent control [3]: 0.66 fold
C[C@]12CCC(=O)C=C1CC[C@@H]1[C@@H]2[C@@H](O)C[C@]2(C=O)[C@@H](C(=O)CO)CC[C@@H]12 [aldosterone, reference compound] |  |  |  | effect of steroids on luciferase expression in the MMTV reporter cell line M10 [3]: stimulates clone M10
C1CCNCC1 [Chemical 759] |  |  |  | GCSF fold inhibition relative to solvent control [1]: 0.64 fold
Nc1nc(=O)n(C2CC(O)C(CO)O2)cc1Br (stereo not shown) [Chemical 542] | 6.28 | 1.08 | 1.26 | 
rat growth hormone releasing factor: rat growth hormone releasing factor (rGRF, Bachem), known inducer of hGH expression (HADAIFTSSYRRILGQLYARKLLHEIMNRQQGERNQEQRSRFN; Somatoliberin; UniProt P09916 31-73, looked up) [reference compound] |  |  |  | stimulation of clone 532 by known inducer ([2]; 100 nM rat growth hormone releasing factor): 2.2 fold
lipopolysaccharide [reference compound] |  |  |  | stimulation of clone G21 by known inducer ([1]; 5 µg/ml lipopolysaccharide): 5.7 fold
Cc1cc(-c2ccc(S(=O)(=O)[O-])cc2)c2ccc3c(-c4ccc(S(=O)(=O)[O-])cc4)cc(C)nc3c2n1.O.[Na+].[Na+] [Chemical 189] | 1.06 | 1.47 | 2.80 | 
CC(=O)[C@H]1CC[C@H]2[C@@H]3CCC4=CC(=O)CC[C@]4(C)[C@H]3CC[C@]12C [progesterone, reference compound] |  |  |  | effect of steroids on luciferase expression in the MMTV reporter cell line M10 [3]: did not
CC1(C)OC2CC3C4CCC5=CC(=O)C=CC5(C)C4(F)C(O)CC3(C)C2(C(=O)CO)O1 (stereo not shown) [Chemical 848] | 0.75 | 1.28 | 2.43 | 
CC(CCl)CBr (single isomer, unassigned) [Chemical 2096] | 3.27 | 0.61 | 0.89 | 
O=c1[nH]c(=O)n(C2CC(O)C(CO)O2)cc1Br (stereo not shown) [Chemical 543] | 7.17 | 0.72 | 0.98 | 
Cc1cc(=O)oc2c(CN(CC(=O)O)CC(=O)O)c(O)ccc12 [Chemical 1712] |  |  |  | GCSF fold inhibition relative to solvent control [1]: 0.64 fold
C[C@@H]1C[C@H]2[C@@H]3CCC4=CC(=O)C=C[C@]4(C)[C@@]3(F)[C@@H](O)C[C@]2(C)[C@@]1(O)C(=O)CO [dexamethasone, reference compound] |  |  |  | stimulation of clone M10 by known inducer ([3]; 1 μm dexamethasone): 11.6 fold
O=C(OC(C(=O)O)C(OC(=O)c1ccccc1)C(=O)O)c1ccccc1 (stereo not shown) [Chemical 578] |  |  |  | GCSF fold inhibition relative to solvent control [1]: 0.65 fold; hGH fold inhibition relative to solvent control [2]: 4.00 fold; MMTV fold inhibition relative to solvent control [3]: 0.91 fold
CC1(C)C2CCC1(C)C(O)C2 (stereo not shown) [Chemical 1635] |  |  |  | GCSF fold inhibition relative to solvent control [1]: 0.71 fold; hGH fold inhibition relative to solvent control [2]: 9.09 fold; MMTV fold inhibition relative to solvent control [3]: 0.99 fold
